Data: ChEMBL document CHEMBL1201862, “PubChem BioAssay data set” (2004)
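Cultured in 96-well plates, cells were exposed to test compound for 48 hours across five concentrations. Here, GI50 denotes the concentration required for 50% inhibition of growth.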 Activity calls are given as the source filed them. Rule as the data show it: active = GI50 up to about 1.1 µM and inactive = higher.

Key:
Assay in all cases: NCI-60 cell line screen, 48 h
A498 = test system: A498
A549 = test system: A549
ACHN = test system: ACHN
COLO 205 = test system: COLO 205
DMS-273 = test system: DMS-273
EKVX = test system: EKVX
HCT-116 = test system: HCT-116
HCT-15 = test system: HCT-15
HL-60 = test system: HL-60
HOP-18 = test system: HOP-18
HOP-92 = test system: HOP-92
HT-29 = test system: HT-29
IGROV-1 = test system: IGROV-1
KM-20L2 = test system: KM-20L2
KM12 = test system: KM12
LOX IMVI = test system: LOX IMVI
LXFL 529 = test system: LXFL 529
M14 = test system: M14
M19-MEL = test system: M19-MEL
MOLT-4 = test system: MOLT-4
Malme-3M = test system: Malme-3M
NCI-H23 = test system: NCI-H23
NCI-H460 = test system: NCI-H460
NCI-H522 = test system: NCI-H522
OVCAR-3 = test system: OVCAR-3
OVCAR-4 = test system: OVCAR-4
OVCAR-5 = test system: OVCAR-5
RPMI-8226 = test system: RPMI-8226
SF-268 = test system: SF-268
SF-539 = test system: SF-539
SK-MEL-28 = test system: SK-MEL-28
SK-MEL-2 = test system: SK-MEL-2
SK-MEL-5 = test system: SK-MEL-5
SN12C = test system: SN12C
SNB-75 = test system: SNB-75
SW-620 = test system: SW-620
TK-10 = test system: TK-10
UACC-257 = test system: UACC-257
UACC-62 = test system: UACC-62
UO-31 = test system: UO-31
786-0 = test system: 786-0
BT-549 = test system: BT-549
CAKI-1 = test system: CAKI-1
CCRF-CEM = test system: CCRF-CEM
DLD-1 = test system: DLD-1
DU-145 = test system: DU-145
HCC 2998 = test system: HCC 2998
HOP-62 = test system: HOP-62
Hs-578T = test system: Hs-578T
K562 = test system: K562
MDA-MB-231 = test system: MDA-MB-231
MDA-MB-435 = test system: MDA-MB-435
MDA-N = test system: MDA-N
NCI-H226 = test system: NCI-H226
NCI/ADR-RES = test system: NCI/ADR-RES
OVCAR-8 = test system: OVCAR-8
PC-3 = test system: PC-3
RXF 393 = test system: RXF 393
SF-295 = test system: SF-295
SK-OV-3 = test system: SK-OV-3
SNB-19 = test system: SNB-19
SNB-78 = test system: SNB-78
SR = test system: SR
T47D = test system: T47D
U-251 = test system: U-251

## Cc1c2cc[n+](C)cc2c(C)c2c1[nH]c1ccc(OC(C)C)cc12
A498
  GI50: 6.35 µM (inactive)
A549
  GI50: 2.01 µM (inactive)
ACHN
  GI50: 11.6 µM (inactive)
COLO 205
  GI50: 1.28 µM (inactive)
DMS-273
  GI50: 2.19 µM (inactive)
EKVX
  GI50: 6.62 µM (inactive)
HCT-116
  GI50: 2.91 µM (inactive)
HCT-15
  GI50: > 100 µM
HL-60
  GI50: 2.56 µM (inactive)
HOP-18
  GI50: 2.54 µM (inactive)
HOP-92
  GI50: 2.6 µM (inactive)
HT-29
  GI50: 3.06 µM (inactive)
IGROV-1
  GI50: 1.9 µM (inactive)
KM-20L2
  GI50: 3.58 µM (inactive)
KM12
  GI50: 1.62 µM (inactive)
LOX IMVI
  GI50: 4.19 µM (inactive)
LXFL 529
  GI50: 0.515 µM (active)
M14
  GI50: 6.34 µM (inactive)
M19-MEL
  GI50: 1.64 µM (inactive)
MOLT-4
  GI50: 3.16 µM (inactive)
Malme-3M
  GI50: 1.34 µM (inactive)
NCI-H23
  GI50: 1.41 µM (inactive)
NCI-H460
  GI50: 2.15 µM (inactive)
NCI-H522
  GI50: 1.47 µM (inactive)
OVCAR-3
  GI50: 1.9 µM (inactive)
OVCAR-4
  GI50: 2.16 µM (inactive)
OVCAR-5
  GI50: 10.9 µM (inactive)
RPMI-8226
  GI50: 6.1 µM (inactive)
SF-268
  GI50: 0.474 µM (active)
SF-539
  GI50: 1.39 µM (inactive)
SK-MEL-28
  GI50: 2.97 µM (inactive)
SK-MEL-2
  GI50: 1.66 µM (inactive)
SK-MEL-5
  GI50: 1.4 µM (inactive)
SN12C
  GI50: 0.392 µM (active)
SNB-75
  GI50: 0.239 µM (active)
SW-620
  GI50: 2.49 µM (inactive)
TK-10
  GI50: 19.8 µM (inactive)
UACC-257
  GI50: 2.37 µM (inactive)
UACC-62
  GI50: 2.51 µM (inactive)
UO-31
  GI50: 44.1 µM (inactive)

## COc1cccc2c1C(=O)c1c(O)c3c(c(O)c1C2=O)C[C@@](O)(C(C)=O)C[C@@H]3OC1CC(O)C(O)C(C)O1 (stereo not given in full)
786-0
  GI50: 1.57 µM (inactive)
A498
  GI50: 3.05 µM (inactive)
A549
  GI50: 0.465 µM (active)
ACHN
  GI50: 0.543 µM (active)
BT-549
  GI50: 3.33 µM (inactive)
CAKI-1
  GI50: 0.789 µM (active)
CCRF-CEM
  GI50: 0.0902 µM (active)
COLO 205
  GI50: 2.05 µM (inactive)
DLD-1
  GI50: 1.46 µM (inactive)
DMS-273
  GI50: 0.253 µM (active)
DU-145
  GI50: 1.62 µM (inactive)
EKVX
  GI50: 6.67 µM (inactive)
HCC 2998
  GI50: 0.918 µM (active)
HCT-116
  GI50: 0.288 µM (active)
HCT-15
  GI50: 1.43 µM
HL-60
  GI50: 0.0501 µM (active)
HOP-18
  GI50: 1.39 µM (inactive)
HOP-62
  GI50: 0.307 µM (active)
HOP-92
  GI50: 2.1 µM (inactive)
HT-29
  GI50: 1.41 µM (inactive)
Hs-578T
  GI50: 0.998 µM (active)
IGROV-1
  GI50: 3.05 µM (inactive)
K562
  GI50: 0.925 µM (active)
KM-20L2
  GI50: 2.69 µM (inactive)
KM12
  GI50: 1.55 µM (inactive)
LOX IMVI
  GI50: 0.59 µM (active)
LXFL 529
  GI50: 2.79 µM (inactive)
M14
  GI50: 4.8 µM (inactive)
M19-MEL
  GI50: 1.6 µM (inactive)
MDA-MB-231
  GI50: 8.65 µM (inactive)
MDA-MB-435
  GI50: 8.95 µM (inactive)
MDA-N
  GI50: 8.71 µM (inactive)
MOLT-4
  GI50: 0.0208 µM (active)
Malme-3M
  GI50: 0.000916 µM (active)
NCI-H226
  GI50: 0.289 µM (active)
NCI-H23
  GI50: 0.942 µM (active)
NCI-H460
  GI50: 0.124 µM (active)
NCI-H522
  GI50: 1.82 µM (inactive)
NCI/ADR-RES
  GI50: 0.36 µM (active)
OVCAR-3
  GI50: 3.69 µM (inactive)
OVCAR-4
  GI50: 3.81 µM (inactive)
OVCAR-5
  GI50: 1.04 µM (active)
OVCAR-8
  GI50: 1.3 µM (inactive)
PC-3
  GI50: 4.95 µM (inactive)
RPMI-8226
  GI50: 0.485 µM (active)
RXF 393
  GI50: 1.17 µM (inactive)
SF-268
  GI50: 1.08 µM (active)
SF-295
  GI50: 0.673 µM (active)
SF-539
  GI50: 0.9 µM (active)
SK-MEL-28
  GI50: 6.08 µM (inactive)
SK-MEL-2
  GI50: 4.81 µM (inactive)
SK-MEL-5
  GI50: 0.875 µM (active)
SK-OV-3
  GI50: 4.51 µM (inactive)
SN12C
  GI50: 0.675 µM (active)
SNB-19
  GI50: 1.09 µM (active)
SNB-75
  GI50: 1.62 µM (inactive)
SNB-78
  GI50: 4.42 µM (inactive)
SR
  GI50: 0.00935 µM (active)
SW-620
  GI50: 0.536 µM (active)
T47D
  GI50: 2.82 µM (inactive)
TK-10
  GI50: 5.74 µM (inactive)
U-251
  GI50: 0.359 µM (active)
UACC-257
  GI50: 3.79 µM (inactive)
UACC-62
  GI50: 1.04 µM (active)
UO-31
  GI50: 1.66 µM (inactive)
